The numbers were not newly measured in patent publication US10314922B2, “Trimaleimide linkers and uses thereof” (NewBio Therapeutics, Inc., priority 2015, dated 2019), which cites them from elsewhere.

The subject of the data set is human carcinoma lines.

pIC50: −log10 of the molar value.

The pIC50 is the IC50 on a negative log10 scale, so that one unit is a factor of ten. In the case of `COc1cccc2c1C(=O)c1c(O)c3c(c(O)c1C2=O)C[C@@](O)(C(=O)CO)C[C@@H]3O[C@H]1C[C@H](N)[C@H](O)[C@H](C)O1` [doxorubicin, Doxorubicin], the pIC50 was 6.70 to 7.00.
